Measured values: patent US20200291082A1, “PREVENTION AND TREATMENT OF GRAFT-VERSUS-HOST-DISEASE WITH DEFENSINS” (priority 2017, published 2020)
No end group written: not given here.

Experiments:
[1] = tested on: Dextran Sodium Sulphate induced colitis; assay: prophylactic murine 10-day oral Dextran Sodium Sulphate induced colitis model, s.c. and i.v. hBD2 versus i.p. mouse anti TNF-α (Example 1); type: in vivo, C57BL/6 mice; conditions: for histological score of distal colon: FIG. 9; for disease activity index (DAI): 10 days
Experimental: Anti-inflammatory effect of s.c. and i.v. administration of hBD2 versus intraperitoneal mouse anti TNF-α in a prophylactic, murine, 10-day, oral Dextran Sodium Sulphate induced colitis model.
70 male C57BL/6 mice housed in groups of five per cage were allocated to 7 different treatment groups. All animals had their drinking water supplemented with DSS 2% for 7 days to induce colitis resulting in significant inflammation and injury of the colonic tissue. The animals were treated with hBD2 dosed intravenously in the tail vein or subcutaneously under the dorsal skin, with mouse anti TNF-α intraperitoneally or PBS as vehicle for 10 days.
(§1) A disease activity index (DAI) scoring system was applied for clinical assessment (FIG. 7). The animals were sacrificed on day 10 and colon removed for histological assessment employing a histological scoring system (FIG. 8).

[2] = tested on: Dextran Sodium Sulphate induced colitis; assay: prophylactic murine 10-day oral Dextran Sodium Sulphate induced colitis model, oral hBD2 versus oral prednisolone (Example 2); type: in vivo, C57BL/6 mice; conditions: for histological score, compared with prednisolone: all three oral hBD2 dose groups versus prednisolone 1 mg/kg; for body weight loss / body weight change: all three oral hBD2 dose levels (0.05, 0.5, 5 mg/kg twice per day), 10 days; for histological score: versus vehicle, Prednisolone 1 mg/kg twice per day p.o., oral hBD2 all doses
Experimental: Anti-inflammatory effect of oral administration of hBD2 versus oral prednisolone in a prophylactic murine, 10-day, oral Dextran Sodium Sulphate induced colitis model.
50 male C57BL/6 mice housed in groups of five per cage were allocated to 5 different treatment groups. All animals had their drinking water supplemented with DSS 2% for 7 days to induce colitis resulting in significant inflammation and injury of the colonic tissue. The animals were treated with oral hBD2 dosed at three different dose levels twice per day or prednisolone 1 mg/kg twice per day or PBS as vehicle for 10 days.
as §1

[3] = tested on: Trinitrobenzene Sulfonic Acid induced colitis; assay: prophylactic murine 8-day Trinitrobenzene Sulfonic Acid induced colitis model (Example 3); type: in vivo, BALB/cByJ mice
Experimental: Anti-inflammatory effect of s.c. administration of hBD2 versus s.c. prednisolone in a prophylactic murine, 8-day Trinitrobenzene Sulfonic Acid induced colitis model.
105 male BALB/cByJ mice housed in groups of five per cage were allocated to 7 different treatment groups. Colitis was induced by intracolonic administration of trinitrobenzene sulfonic acid on day 0 under light anaesthesia resulting in significant inflammation and injury of the colonic tissue. The animals were treated with hBD2 at four different dosing levels once daily (1 mg/kg, 0.3 mg/kg, 0.1 mg/kg, and 0.03 mg/kg) or Prednisolone 10 mg/kg once daily dosed subcutaneously under the dorsal skin or PBS as vehicle for 7 days.
as §1

[4] = tested on: house dust mite model of allergic asthma; assay: therapeutic intranasal versus oral hBD2 in murine house dust mite model of allergic asthma (Example 10); type: in vivo, BALB/c mice
Experimental: To determine and assess the efficacy of IN versus oral therapeutic intervention with defensins in a murine house dust mite model of allergic asthma.
Treatment regime: Female 7-10 weeks old BALB/c mice were randomly allocated into 7 study groups one day prior to study start and subcutaneously (SC) sensitized to house dust mite (100 μg HDM in 200 μL saline plus Freund's complete adjuvant in 0.9% saline). Mice were then intranasally (IN) challenged with HDM on day 14 (HDM 25 μg in 50 μL of saline). Dexamethasone was administered orally (1 mg/kg BID; 50 μL phosphate buffered saline (PBS)) on day 14. hBD2 was administered IN or orally (1.7 mg/kg TID IN; 0.4 mg/kg TID IN; 0.4 mg/kg TID orally, 50 μL phosphate buffered saline) on day 14. The initial dose was administered 60 minutes prior to challenge, and the subsequent doses approximately 6 hours apart (FIG. 5).
Airway inflammation: At 48 hours post challenge, bronchoalveolar lavage was performed washing the lungs with 3 volumes of cold PBS (0.4; 0.3 and 0.3 mL, total 1 mL). Total and differential leucocyte cell counts were determined on an automated haematological analyser Sysmex XT-2000iV.
Data are represented as airway resistance at […] methacholine and as dose responsive curves.
Lung sampling for cytokine analysis: After completion of every BAL, lungs were removed from the thorax, snap frozen in liquid nitrogen and stored frozen at −80 degrees Celsius until analysis of cytokine concentration of IL-1β, TNF-α, IL-6, IL-10 and IFNγ by ELISA.

[5] = tested on: acute graft versus host disease following stem cell transplantation; assay: prophylactic oral hBD-2 versus cyclosporine in murine model of acute graft versus host disease (Example 14); type: in vivo, BALB/c mice
Experimental: To determine and assess the efficacy of prophylactic treatment with oral hBD-2 versus cyclosporine in a murine model of acute graft versus host disease following stem cell transplantation.
Treatment regime: 20 female BALB/c mice were irradiated with 4.5 Gy (2×498 sec) at intervals of at least 4 hours on day 0. Bone marrow was harvested: hind limbs harvested from 2 female WT C57BL/6 mice aseptically. Skeletal muscle was removed and epiphysis cut away. Lumen of bone flushed with PBS and cells pelleted and taken up. Harvest of T-cells: spleens from 2 female WT C57BL/6 mice were meshed through a […] cell strainer into a PBS filled dish. Cells were taken up in PBS and transferred into a 50 mL falcon tube and spun down. Cells were taken up in 1 mL PBS and 20 μL of CD4 microbead+20 μL CD8 microbeads per spleen added for incubation for 20 min at 4 degrees C. Cells were washed with PBS and applied to MACS separation in order to positively select CD4+ and CD8+ cells. Positively selected T-cells were counted and taken up. Transplantation: directly after the second irradiation, all WT BALB/c recipient mice were injected with 5×1.000.000 BM cells (50 μL) i.v. into the retroorbital venous plexus under isoflurane anesthesia. 20 BALB/c mice were treated with 1.2 mg of hBD2/kg BW/day (n=7); 50 mg cyclosporine/kg BW on days 0, 3, 6 and 9 (n=7) or 100 μL PBS per day vial oral gavage (n=6) from day 0-10.
The mice were weighed at regular intervals during the study and survival was monitored for 90 days.

[6] = tested on: house dust mite model of allergic asthma; assay: therapeutic intranasal versus oral hBD2 in murine house dust mite model of allergic asthma (Example 10); type: in vivo, BALB/c mice; conditions: hBD2, both dosing routes
[7] = dexamethasone 1 mg/kg BID oral, hBD2 both IN doses (0.4 mg/kg/day TID and 1.7 mg/kg/day TID)
[8] = hBD2 both oral and intranasal TID on day 14, versus HDM challenged vehicle

## human beta defensin 2 (GIGDPVTCLKSGAICHPVFCPRRYKQIGTCGLPGTKCCKKP; not fully specified (bridges); ends and bridges not checked; listed as Homo sapiens) [hBD2]
[1]; hBD2 0.1 mg/kg compared with mouse anti TNF-α
  histological score of distal colon: statistically significant superiority
[1]; subcutaneous compared with i.v. hBD2 administration
  histological score of distal colon: superiority over i.v. administration
[1]; hBD2 intravenous administration
  disease activity index (DAI): significant reduction of DAI
[1]; hBD2 s.c. twice daily, colon day 10
  histology score: highly statistical significant effect on histology score
[1]; hBD2 subcutaneous route, once or twice daily
  disease activity index (DAI): most significant effect
[2]; FIG. 11, orally administered hBD2 versus prednisolone 1 mg/kg
  disease activity index score, compared with prednisolone: statistically significant superiority
[2]
  histological score, compared with prednisolone: significantly better than Prednisolone
  body weight loss / body weight change: dramatically reduced loos of body weight
  histological score: statistically significant effect on histological score
[2]; listed as HBD2
  histological score, compared with prednisolone: on par with prednisolone 1 mg/kg
  histological score: statistical significant effect
[2]; listed as HBD2hBD2
  body weight loss / body weight change: weight preserving effect
[2]; high dose group hBD2 5 mg/kg BID oral
  body weight loss: most pronounced
[2]; high dose hBD2 5 mg/kg BID oral, compared with lower doses and Prednisolone
  disease activity index (DAI): significantly better effect on DAI
[2]; two lower dose levels of oral hBD2 (0.05, 0.5 mg/kg twice per day)
  disease activity index (DAI): statistically significant effect on DAI on par with Prednisolone
[3]; FIG. 13, 0.03 and 0.1 mg/kg hBD2 (Group E and F), on par with prednisolone 10 mg/kg
  histological score: statistical significant effect
[3]; Prednisolone 10 mg/kg s.c. once daily, hBD2 at 0.1, 0.3 and 1 mg/kg s.c. once daily
  histological score: highly statistically significant clinical effect on histological score
[3]; hBD2 0.03 and 0.1 mg/kg OD s.c.
  body weight: highly statistically significant increase in body weight
[4]; [7]
  eosinophil counts in BALF: trend towards lowering of eosinophils
  macrophage counts in BALF: significantly inhibited
  neutrophil counts in BALF: significantly inhibited
  total cell counts in BALF: significantly inhibited
[4]; hBD2, both dosing routes
  IL-6 level in lung tissue homogenates: significant effects
  IL-10 level in lung tissue homogenates: significant effects
[4]; [8]
  airway resistance: effectively inhibited increase of airway resistance
  pulmonary compliance: effectively inhibited
[4]; intranasally administered hBD2
  TNF-α level in lung tissue homogenates: differed from the control but not significantly
[4]; perorally administered hBD2
  TNF-α level in lung tissue homogenates: significantly reduced TNF-α
[5]; FIG. 56, 7 mice treated with oral hBD-2 for 10 days
  mortality: statistically significant reduction of mortality
[5]; compared with PBS treated mice
  weight loss following bone marrow transplantation: lost statistically significantly less weight
[5]; oral hBD-2 1.2 mg/kg/day day 0-10 (n=7), cyclosporine 50 mg/kg on days 0, 3, 6 and 9 (n=7), all but one of PBS mice (n=6) died
  treated animals that had died by day 90: 1
[6]
  IL-4 level in lung tissue homogenates: significant effects
  IL-5 level in lung tissue homogenates: significant effects
